Values quoted from earlier work in patent US8168657B2, “Solenopsin A, B and analogs and as novel angiogenesis inhibitors” (priority 2002, dated 2012).

Experiments:
[1] = as much as 6000 units used over a shorter time period
[2] = tested on: blood and tissue- and fluid-feeding parasites

CCCCCCCCCCC[C@H]1CCC[C@H](C)N1 (relative stereo) [Solenopsin A, trans-2-methyl 6-n-undecylpiperidine]
ill effects [1]: did not cause any ill effects
units equivalent to 250 units of the whole body extracts ([2]; synthetic version versus whole body extract, effective treatment): 1500 units
elimination of blood and tissue- and fluid-feeding parasites ([2]; synthetically produced Solenopsin A): complete elimination
